Assay results as given in US8425894B2, “Use of oligomers of lactic acid in the treatment of gynaecological disorders” (priority 2007, dated 2013).

Columns and labels:
[1] = Comparison of in vitro release from lactic acid and OMLA 30 through a dialysis membrane; assay type: physicochemical
Protocol: 200 mg of LA or OMLA was placed in a dialysis bags. The bags were immersed in 50 ml of water (37° C.) and stirred in the same temperature for 48 hours. After 3, 6, 24 and 48 hours the acceptor liquid was removed and replaced with fresh water. The pH was measured at regular intervals. The liquid was titrated with 0.1 or 0.01 M KOH to measure how much LA equivalents are released. Then an excess of KOH was added and after 24 hours the solution was titrated with 0.1 or 0.01 HCl. […] The results are presented in FIG. 4A. pH was measured outside of the dialysis bags each hour between 1 to 10 and periodically up to 48 hours (FIG. 4B).

[2] = Mucoadhesive properties of OMLA formulations (5 graded VAS scale); assay type: physicochemical; conditions: 0 = no, 4 = very pronounced mucoadhesive properties, fluid form
Protocol: Mucoadhesiveness (or bioadhesiveness) is given according to a 5 graded VAS scale, where 0 denotes no mucoadhesive properties and 4 very pronounced mucoadhesive properties.
Chemical and preformulation experiments were carried out in order to determine mucoadhesiveness of OMLA in gel or semisolid forms (see table below). The mucoadhesiveness for the OMLA judged for fluid, gel, patch, and vagitoria. Muco(Bio)adhesiveness is given according to a 5 graded VAS scale, where 0 denotes no mucoadhesive properties and 4 very pronounced mucoadhesive properties.

release from the dialysis bag ([1]; 200 mg in dialysis bag, 50 ml water, 37° C.): immediately
ability to maintain constant acidic pH outside the dialysis bag ([1]; 50 ml water 37° C., replaced after 3, 6, 24, 48 h): not able to maintain acidic pH constant
Mucoadhesiveness, Fluid [2]: 0
Compound: CC(O)C(=O)O (stereo not drawn) [LA, lactic acid]
